{
  "source": "paper PMC6980832",
  "about": "“Crystal structures of Triosephosphate Isomerases from Taenia solium and Schistosoma mansoni provide insights for vaccine rationale and drug design against helminth parasites” (PLoS Neglected Tropical Diseases, 2020)",
  "key": {"[1]": {"target": "T1, SmTPI (Schistosoma mansoni, UniProt P48501)", "T1 construct": "gene TPI; full length, codon-optimised synthetic gene, E. coli tpi-null strain, modified pET19; extra Gly-Pro-His before Met1; homodimer about 50 kDa", "T1 sequence (P48501 whole entry)": "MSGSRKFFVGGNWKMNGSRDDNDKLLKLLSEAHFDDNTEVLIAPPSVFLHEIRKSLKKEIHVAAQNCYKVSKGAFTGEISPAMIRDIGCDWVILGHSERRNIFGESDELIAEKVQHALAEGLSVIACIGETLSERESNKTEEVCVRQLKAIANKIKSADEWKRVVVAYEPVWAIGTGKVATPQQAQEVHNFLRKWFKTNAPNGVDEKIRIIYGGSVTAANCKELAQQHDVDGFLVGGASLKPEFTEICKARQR", "assay": "X-ray crystal structure of the complex", "assay_type": "binding", "settings": "co-crystallised with 10 mM 2-PGA; active site, closed loop 6; 2.3 Å; bound in all 8 monomers"}, "[2]": {"target": "T2, TsTPI (Taenia solium, UniProt Q9GTX8)", "T2 construct": "full length, codon-optimised synthetic gene, E. coli tpi-null strain, modified pET19; extra Gly-Pro-His before Met1; homodimer", "T2 sequence (Q9GTX8 whole entry)": "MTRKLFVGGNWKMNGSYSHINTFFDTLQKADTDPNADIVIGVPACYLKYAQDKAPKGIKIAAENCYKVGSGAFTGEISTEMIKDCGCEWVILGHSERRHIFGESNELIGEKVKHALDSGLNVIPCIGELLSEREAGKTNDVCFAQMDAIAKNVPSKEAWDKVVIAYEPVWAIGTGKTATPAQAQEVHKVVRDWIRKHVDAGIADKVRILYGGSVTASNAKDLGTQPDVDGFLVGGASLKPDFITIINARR", "assay": "X-ray crystal structure of the complex", "assay_type": "binding", "settings": "co-crystallised with 10 mM 2-PGA; active site, closed loop 6; 2.1 Å"}},
  "data": [
    {"smiles": "O=C(O)[C@@H](CO)OP(=O)(O)O", "note": "[2-PGA, 2-phosphoglyceric acid]", "values": [
      {"measurement": "X-ray crystal structure of the complex", "setting": "[1]", "result": "We solved the crystal structures of TsTPI and SmTPI in complex with the inhibitor 2-PGA"},
      {"measurement": "X-ray crystal structure of the complex", "setting": "[2]", "result": "We solved the crystal structures of TsTPI and SmTPI in complex with the inhibitor 2-PGA"}
    ]}
  ]
}
